Assay results reported in paper PMC8396542, “Iterated Virtual Screening-Assisted Antiviral and Enzyme Inhibition Assays Reveal the Discovery of Novel Promising Anti-SARS-CoV-2 with Dual Activity” (International Journal of Molecular Sciences, 2021).

Key:
[1] = biological target: T1, SARS-CoV-2 M^pro (3CL Protease, 3CL^pro) (Severe acute respiratory syndrome coronavirus 2, UniProt P0DTD1); assay: biochemical
T1 construct: gene rep; untagged enzyme from BPS Bioscience kit; mature main protease nsp5 cut from replicase polyprotein 1ab (pp1a/pp1ab)

human furin = biological target: T2, human furin (Homo sapiens, UniProt P09958); assay: fluorogenic protease assay; type: biochemical
T2 construct: recombinant furin from BPS Bioscience furin protease assay kit

human TMPRSS2 = biological target: T3, human TMPRSS2 (Homo sapiens, UniProt O15393); assay: fluorogenic protease assay; type: biochemical
T3 construct: enzyme from BPS Bioscience TMPRSS2 fluorogenic assay kit
T3 sequence (O15393 109-492 limits assumed): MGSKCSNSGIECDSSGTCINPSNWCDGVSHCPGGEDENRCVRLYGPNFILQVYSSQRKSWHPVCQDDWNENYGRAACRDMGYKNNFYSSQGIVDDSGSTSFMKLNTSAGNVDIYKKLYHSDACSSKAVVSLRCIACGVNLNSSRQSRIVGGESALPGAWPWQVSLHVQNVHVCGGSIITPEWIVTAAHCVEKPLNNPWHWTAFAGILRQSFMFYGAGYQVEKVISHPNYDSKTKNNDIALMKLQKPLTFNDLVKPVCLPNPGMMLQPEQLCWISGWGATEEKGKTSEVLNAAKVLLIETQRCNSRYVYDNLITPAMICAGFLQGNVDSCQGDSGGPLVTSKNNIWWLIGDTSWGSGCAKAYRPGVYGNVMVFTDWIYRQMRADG

T2 sequence (P09958 108-715): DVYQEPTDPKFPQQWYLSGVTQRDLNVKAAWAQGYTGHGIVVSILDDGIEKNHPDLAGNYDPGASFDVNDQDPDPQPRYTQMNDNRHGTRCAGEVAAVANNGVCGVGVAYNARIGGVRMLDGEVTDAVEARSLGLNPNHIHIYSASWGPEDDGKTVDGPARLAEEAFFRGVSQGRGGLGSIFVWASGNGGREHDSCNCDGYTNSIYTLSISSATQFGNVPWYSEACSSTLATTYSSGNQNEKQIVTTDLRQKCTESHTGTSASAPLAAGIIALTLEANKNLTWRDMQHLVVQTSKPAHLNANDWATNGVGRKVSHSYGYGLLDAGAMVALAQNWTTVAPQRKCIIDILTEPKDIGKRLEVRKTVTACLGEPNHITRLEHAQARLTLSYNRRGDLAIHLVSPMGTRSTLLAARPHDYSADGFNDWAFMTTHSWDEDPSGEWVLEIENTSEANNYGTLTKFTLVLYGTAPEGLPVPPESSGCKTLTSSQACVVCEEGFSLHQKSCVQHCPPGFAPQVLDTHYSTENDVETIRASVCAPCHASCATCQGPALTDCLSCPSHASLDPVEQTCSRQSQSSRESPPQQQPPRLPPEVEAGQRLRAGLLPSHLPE

N=C(N/N=C/c1ccncc1)c1nonc1NCNc1nonc1C(=N)N/N=C/c1ccncc1 [M3]
IC50 [1]: 13 ± 3 nM
IC50 (human furin): 90 ± 2 nM
IC50 (human TMPRSS2): 50 ± 2 nM
